{"source": "ChEMBL document CHEMBL5247584", "about": "“Design, synthesis and evaluation of fused hybrids with acetylcholinesterase inhibiting and Nrf2 activating functions for Alzheimer's disease” (Eur J Med Chem, 2022)", "key": {"BV-2 [1]": {"test_system": "BV-2", "experiment": "Antiinflammatory activity against LPS-injured mouse BV-2 cells assessed as decrease in IL-1beta level at 5 uM by immunofluorescence staining based analysis", "format": "functional, cell-based"}, "Cholinesterase": {"target": "Cholinesterase (Equus caballus, UniProt P81908)", "sequence (P81908 whole entry)": "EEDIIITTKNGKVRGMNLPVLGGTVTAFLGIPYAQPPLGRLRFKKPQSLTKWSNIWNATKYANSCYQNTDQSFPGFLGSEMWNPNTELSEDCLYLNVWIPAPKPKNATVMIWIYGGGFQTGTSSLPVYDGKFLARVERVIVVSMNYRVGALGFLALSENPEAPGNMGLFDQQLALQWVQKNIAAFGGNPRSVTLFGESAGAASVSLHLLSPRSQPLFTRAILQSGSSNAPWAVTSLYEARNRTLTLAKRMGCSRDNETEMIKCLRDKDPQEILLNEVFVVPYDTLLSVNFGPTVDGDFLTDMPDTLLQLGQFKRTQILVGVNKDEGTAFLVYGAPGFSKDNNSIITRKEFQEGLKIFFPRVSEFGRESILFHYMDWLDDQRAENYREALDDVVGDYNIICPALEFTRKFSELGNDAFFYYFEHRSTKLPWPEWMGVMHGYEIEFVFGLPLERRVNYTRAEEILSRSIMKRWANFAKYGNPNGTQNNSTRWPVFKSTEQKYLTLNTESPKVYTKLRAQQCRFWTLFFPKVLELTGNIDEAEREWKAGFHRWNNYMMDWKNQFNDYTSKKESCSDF", "experiment": "Inhibition of equine serum BuChE using ATC and BTC iodide as substrate preincubated for 5 mins followed by substrate addition and measured after 2 mins by DTNB reagent based assay"}, "Acetylcholinesterase": {"target": "Acetylcholinesterase (Homo sapiens, UniProt P22303)", "sequence (P22303 whole entry)": "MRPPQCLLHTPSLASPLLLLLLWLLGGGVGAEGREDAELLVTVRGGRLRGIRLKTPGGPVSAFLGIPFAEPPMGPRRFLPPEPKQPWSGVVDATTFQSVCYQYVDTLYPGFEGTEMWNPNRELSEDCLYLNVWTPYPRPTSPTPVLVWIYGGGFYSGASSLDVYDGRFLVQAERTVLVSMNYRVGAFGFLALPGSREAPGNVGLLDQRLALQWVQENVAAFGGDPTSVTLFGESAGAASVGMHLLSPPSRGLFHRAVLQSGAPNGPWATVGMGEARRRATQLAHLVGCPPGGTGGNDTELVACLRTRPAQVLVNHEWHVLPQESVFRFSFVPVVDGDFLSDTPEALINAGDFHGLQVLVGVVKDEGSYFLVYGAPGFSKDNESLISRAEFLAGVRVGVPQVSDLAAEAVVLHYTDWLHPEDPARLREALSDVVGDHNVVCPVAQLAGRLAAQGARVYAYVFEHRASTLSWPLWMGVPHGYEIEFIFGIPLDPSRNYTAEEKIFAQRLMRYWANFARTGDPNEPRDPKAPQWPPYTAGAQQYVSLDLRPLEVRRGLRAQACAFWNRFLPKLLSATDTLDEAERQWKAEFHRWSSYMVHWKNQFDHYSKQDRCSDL", "experiment": "Inhibition of human AChE using ATC and BTC iodide as substrate preincubated for 5 mins followed by substrate addition and measured after 2 mins by DTNB reagent based assay"}, "[2]": {"experiment": "[…] in rat PC12 cells assessed as morphological changes", "format": "toxicity, cell-based", "conditions": "pc-12"}, "[3]": {"target": "T1, Nuclear factor erythroid 2-related factor 2 (Rattus norvegicus) (UniProt O54968)", "T1 sequence (whole entry)": "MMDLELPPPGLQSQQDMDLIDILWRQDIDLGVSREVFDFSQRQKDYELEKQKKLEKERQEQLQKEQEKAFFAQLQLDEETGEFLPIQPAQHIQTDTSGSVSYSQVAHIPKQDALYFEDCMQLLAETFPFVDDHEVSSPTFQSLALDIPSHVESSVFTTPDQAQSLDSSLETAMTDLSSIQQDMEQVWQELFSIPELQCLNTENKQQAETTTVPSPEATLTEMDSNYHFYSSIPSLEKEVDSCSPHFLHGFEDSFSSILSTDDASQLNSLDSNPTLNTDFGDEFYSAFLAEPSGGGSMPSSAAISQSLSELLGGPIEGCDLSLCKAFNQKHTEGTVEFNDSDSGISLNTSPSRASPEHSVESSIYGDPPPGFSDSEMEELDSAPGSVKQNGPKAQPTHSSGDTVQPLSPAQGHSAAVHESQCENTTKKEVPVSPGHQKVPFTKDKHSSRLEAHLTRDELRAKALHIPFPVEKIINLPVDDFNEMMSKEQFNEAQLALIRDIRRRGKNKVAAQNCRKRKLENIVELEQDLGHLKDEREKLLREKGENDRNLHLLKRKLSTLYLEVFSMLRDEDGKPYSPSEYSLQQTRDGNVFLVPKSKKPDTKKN", "experiment": "Activation of Nrf2 pathway in rat PC-12 cells assessed as increase in NQO1 level at 20 uM measured after 6 hrs by Western blot analysis", "format": "cell-based", "conditions": "PC12, filed as activator"}, "[4]": {"target": "T1, Nuclear factor erythroid 2-related factor 2 (Rattus norvegicus)", "experiment": "Activation of Nrf2 pathway in rat PC-12 cells assessed as increase in GCLM level at 20 uM measured after 6 hrs by Western blot analysis", "format": "cell-based", "conditions": "PC12, filed as activator"}, "[5]": {"target": "T1, Nuclear factor erythroid 2-related factor 2 (Rattus norvegicus)", "experiment": "Induction of Nrf2 pathway in rat PC12 cells assessed as fold increase in Nrf2 level at 20 uM measured after 6 hrs by Western blot analysis", "format": "cell-based", "conditions": "filed as activator"}, "[6]": {"target": "T1, Nuclear factor erythroid 2-related factor 2 (Rattus norvegicus)", "experiment": "Activation of Nrf2 pathway in rat PC-12 cells assessed as fold increase in HO-1 level at 20 uM measured at 2 hrs by qRT-PCR analysis", "format": "cell-based", "conditions": "PC12, filed as activator"}, "[7]": {"target": "T1, Nuclear factor erythroid 2-related factor 2 (Rattus norvegicus)", "experiment": "Activation of Nrf2 pathway in rat PC-12 cells assessed as fold increase in NQO1 level at 20 uM measured at 2 hrs by qRT-PCR analysis", "format": "cell-based", "conditions": "PC12, filed as activator"}, "[8]": {"target": "T1, Nuclear factor erythroid 2-related factor 2 (Rattus norvegicus)", "experiment": "Activation of Nrf2 pathway in rat PC-12 cells assessed as fold increase in Nrf2 expression level at 1 to 20 uM measured at 6 hrs by qRT-PCR analysis", "format": "cell-based", "conditions": "PC12, filed as activator, dose 1-20 µM"}, "[9]": {"target": "T1, Nuclear factor erythroid 2-related factor 2 (Rattus norvegicus)", "experiment": "Activation of Nrf2 pathway in rat PC-12 cells assessed as fold increase in HO-1 expression level at 1 to 20 uM measured at 6 hrs by qRT-PCR analysis", "format": "cell-based", "conditions": "PC12, filed as activator, dose 1-20 µM"}, "[10]": {"target": "T1, Nuclear factor erythroid 2-related factor 2 (Rattus norvegicus)", "experiment": "Activation of Nrf2 pathway in rat PC-12 cells assessed as fold increase in NQO1 expression level at 1 to 20 uM measured at 6 hrs by qRT-PCR analysis", "format": "cell-based", "conditions": "PC12, filed as activator, dose 1-20 µM"}, "[11]": {"target": "T1, Nuclear factor erythroid 2-related factor 2 (Rattus norvegicus)", "experiment": "Activation of Nrf2 pathway in rat PC-12 cells assessed as fold increase in GCLM expression level at 1 to 20 uM measured at 6 hrs by qRT-PCR analysis", "format": "cell-based", "conditions": "PC12, filed as activator, dose 1-20 µM"}, "[12]": {"target": "T1, Nuclear factor erythroid 2-related factor 2 (Rattus norvegicus)", "experiment": "Activation of Nrf2 pathway in rat PC-12 cells assessed as increase in Nrf2 accumulation in nucleus at 20 uM measured after 1 to 5 hrs by Western blot analysis", "format": "cell-based", "conditions": "PC12, filed as activator, time 1-5 hrs"}, "[13]": {"target": "T1, Nuclear factor erythroid 2-related factor 2 (Rattus norvegicus)", "experiment": "Induction of Nrf2 nuclear translocation in rat PC12 cells measured for 12 hrs by FITC staining based confocal microscopic analysis", "format": "cell-based", "conditions": "filed as activator"}, "PC-12": {"test_system": "PC-12", "experiment": "Cytoprotective activity against H2O2-induced cell damage in rat PC12 cells assessed as reduction in cell injury measured after 24 hrs by MTT assay relative to control", "format": "functional, cell-based", "conditions": "dose 1-20 µM"}, "SH-SY5Y [14]": {"test_system": "SH-SY5Y", "experiment": "Neuroprotective activity against Abeta1-42-induced human SH-SY5Y cells assessed as restoration of cell viability preinubated for 2 hrs followed by Abeta1-42 induction and measured after 24 hrs by MTT assay", "format": "functional, cell-based", "conditions": "time 26.0 hrs"}, "BV-2 [15]": {"test_system": "BV-2", "experiment": "Neuroprotective activity against LPS-induced mouse BV-2 cells assessed as inhibition of ROS production at 1 to 40 uM preincubated for 1 hr followed by LPS stimulation and measured after 24 hrs by DCFH-DA staining based microplate reader anlaysis", "format": "functional, cell-based", "conditions": "dose 1-40 µM, time 25.0 hrs"}, "Mus musculus [16]": {"test_system": "Mus musculus", "experiment": "Antialzheimer activity against scopolamine-induced cognitive impairment ICR mouse model assessed as confuse escape tracks at 3 mg/kg, po administered once a day for 10 days and measured after 5 to 10 days by Morris water maze test", "format": "functional, organism-based", "conditions": "time 5-10 day"}, "SH-SY5Y [17]": {"test_system": "SH-SY5Y", "experiment": "Neuroprotective activity against Abeta1-42-induced human SH-SY5Y cells assessed as inhibition of ROS production preincubated for 24 hrs followed by Abeta1-42 induction and measured after 24 hrs by DCFH-DA staining based fluorescence microscopic anlaysis", "format": "functional, cell-based", "conditions": "dose 5.0 µM"}, "BV-2 [18]": {"test_system": "BV-2", "experiment": "Antiinflammatory activity against LPS-injured mouse BV-2 cells assessed as decrease in IL-6 level at 5 uM by immunofluorescence staining based analysis", "format": "functional, cell-based"}, "Mus musculus [19]": {"test_system": "Mus musculus", "experiment": "Antialzheimer activity against scopolamine-induced cognitive impairment ICR mouse model assessed as reduction in escape latency at 3 mg/kg, po administered once a day for 10 days and measured after 5 to 10 days by Morris water maze test", "format": "functional, organism-based", "conditions": "time 5-10 day"}, "Mus musculus [20]": {"test_system": "Mus musculus", "experiment": "Antialzheimer activity against scopolamine-induced cognitive impairment ICR mouse model assessed as distance to reach target at 3 mg/kg, po administered once a day for 10 days and measured after 5 to 10 days by Morris water maze test", "format": "functional, organism-based", "conditions": "time 5-10 day"}, "Mus musculus [21]": {"test_system": "Mus musculus", "experiment": "Antialzheimer activity against scopolamine-induced cognitive impairment ICR mouse model assessed as decrease in arrival time at 3 mg/kg, po administered once a day for 10 days and measured after 5 to 10 days by Morris water maze test", "format": "functional, organism-based", "conditions": "time 5-10 day"}, "Mus musculus [22]": {"test_system": "Mus musculus", "experiment": "Antiinflammatory activity Abeta1-42-induced against ICR mouse assessed as increase in TGF-beta1 level at 10 mg/kg, po in presence of presence of donepezil by ELISA analysis", "format": "functional, organism-based"}, "Mus musculus [23]": {"test_system": "Mus musculus", "experiment": "Antiinflammatory activity Abeta1-42-induced against ICR mouse assessed as increase in TGF-beta1 level at 20 mg/kg, po by ELISA analysis", "format": "functional, organism-based"}, "Mus musculus [24]": {"test_system": "Mus musculus", "experiment": "Neuroprotective activity against Abeta1-42-induced ICR mouse at 10 mg/kg, po by ELISA analysis", "format": "functional, organism-based"}, "Mus musculus [25]": {"test_system": "Mus musculus", "experiment": "Cognitive enhancing effect in amyloid beta (1 to 42)-induced ICR mouse model assessed as increase in ACh level at 10 mg/kg […] by ELISA", "format": "functional, organism-based"}}, "note": "Calls of active or inactive are those of the source. The rule behind the calls is not given here.", "data": [{"smiles": "Cc1ccc(-c2noc(-c3cccc(OCC4CCN(Cc5cccc(F)c5)CC4)c3)n2)cn1", "values": [{"measurement": "Activity", "setting": "BV-2 [1]", "result": "inactive"}, {"measurement": "IC50", "setting": "Cholinesterase", "result": 8.15, "unit": "µM"}, {"measurement": "IC50", "setting": "Acetylcholinesterase", "result": 0.38, "unit": "µM"}, {"measurement": "Activity", "setting": "[2]", "result": "Non-Toxic"}, {"measurement": "Activity", "setting": "[3]", "result": "Active"}, {"measurement": "Activity", "setting": "[4]", "result": "Active"}, {"measurement": "fold change (FC)", "setting": "[5]", "result": 4}, {"measurement": "fold change (FC)", "setting": "[6]", "result": 4}, {"measurement": "fold change (FC)", "setting": "[7]", "result": 8}, {"measurement": "fold change (FC)", "setting": "[8]", "result": 4}, {"measurement": "fold change (FC)", "setting": "[9]", "result": 4}, {"measurement": "fold change (FC)", "setting": "[10]", "result": 4}, {"measurement": "fold change (FC)", "setting": "[11]", "result": 4}, {"measurement": "Activity", "setting": "[12]", "result": "Active"}, {"measurement": "Activity", "setting": "[13]", "result": "Active"}, {"measurement": "Activity", "setting": "PC-12", "result": "Dose-Dependent Effect"}, {"measurement": "Activity", "setting": "SH-SY5Y [14]", "result": "Active"}, {"measurement": "Activity", "setting": "BV-2 [15]", "result": "Active"}, {"measurement": "Activity", "setting": "Mus musculus [16]", "result": "Active"}, {"measurement": "Activity", "setting": "SH-SY5Y [17]", "result": "Dose-Dependent Effect"}, {"measurement": "Activity", "setting": "BV-2 [18]", "result": "inactive"}, {"measurement": "Activity", "setting": "Mus musculus [19]", "result": "Active"}, {"measurement": "Activity", "setting": "Mus musculus [20]", "result": "Active"}, {"measurement": "Activity", "setting": "Mus musculus [21]", "result": "Active"}, {"measurement": "Activity", "setting": "Mus musculus [22]", "result": "Active"}, {"measurement": "Activity", "setting": "Mus musculus [23]", "result": "Active"}, {"measurement": "Activity", "setting": "Mus musculus [24]", "result": "Active"}, {"measurement": "Activity", "setting": "Mus musculus [25]", "result": "Active"}]}]}
